{"source": "patent US10981957B2", "about": "“Peptides having antimicrobial activity and new enzyme capable of converting L-configured residue in D-configured amino acid in a peptide” (INSTITUT NATIONAL DE RECHERCHE POUR L'AGRICULTURE, …, priority 2015, dated 2021)", "key": {"B. subtilis [1]": {"test_system": "B. subtilis", "assay": "Inhibition assay on solid medium (plate growth inhibition assay)", "type": "cell-based, Bacillus subtilis", "conditions": "200 μg of peptide spotted, 37° C., FIG. 5A", "description": "(§1) FIG. 5—Activity of YydF18-49 of YydG. (FIG. 5A) Plate growth inhibition assay of B. subtilis in the presence of YydF18-49 or the epimierized product YydFb. (FIG. 5B) Growth of Bacillus subtilis in LB medium in the absence of peptide (□) or in the presence of the YydF18-49 peptide with a free C-terminus: Ac-[…] (SEQ ID No 20) containing either no modification (▪), a D-allo-lle (♦), a D-Val (⋄) or two-epimerized residues: Ac-GLLDESQKLAKVNDLWYF{d-V}KSKENRW{d-I}LGSGH (SEQ ID No 20) (▴). The OD values are the means of 3 independent cultures.\nInhibition Assay on Solid Medium\nAn overnight culture of the bacterial strain to be assayed was freshly inoculated to sterile BHI liquid medium. After 4 hours of bacterial growth at 37° C., the medium was diluted to 1/1000 and inoculated into a soft agarose medium pre-heated at 42° C. The agarose medium containing bacteria was overlaid on a previously jellified sterile BHI agarose layer. 200 μg of peptide was spotted onto the plate and bacterial growth proceeded at 37° C."}, "B. subtilis [2]": {"test_system": "B. subtilis", "type": "cell-based, Bacillus subtilis", "conditions": "for Growth of B. subtilis in liquid LB medium: OD at 600 nm, FIG. 5B, FIG. 8a", "description": "as §1\nFIG. 8—(A) Growth of B. subtilis in liquid LB medium in the presence of YydF33-49 or YydF33-49DD. B. subtilis was grown in LB medium alone (♦), in the presence of YydF33-49 (□) (SEQ ID NO: 76, top) or YydF33-49DD (▪) (SEQ ID NO: 75, bottom). Each measurement is the mean of three growth experiments with the SD indicated. The epimerized residues are in black. (b) Growth ratio of B. subtilis in presence of YydF18-49 (100 μM) or YydF18-49DD (100, 10 or 1 μM). Ratios were determined by comparison with growth in the absence of peptide. (c) Growth ratio of B. subtilis in presence of YydF33-49 or YydF33-49DD (100, 10, 1, 0.1 or 0.01 μM). Ratios were determined by comparison with bacterial growth in the absence of peptide.\nFIG. 9—Growth of B. subtilis in liquid LB medium in the presence of YydF18-49 (□) or after addition (arrow) of the YydF18-49DD (▪) after 3 hours of growth. Each measurement is the mean of three growth experiments with the SD indicated.\nFIG. 10—Growth of B. subtilis in liquid LB medium in the presence of […] (a), YydF33_49AA (b) (SEQ ID NO: 66), YydF33_49vv (c) (SEQ ID NO: 67), YydF33_49II (d) (SEQ ID NO: 68), Peptide-SA1 (e) (SEQ ID NO: 62), Peptide-SA2 (f) (SEQ ID NO: 63), Peptide-SE (g) (SEQ ID NO: 64) or Peptide-SP (h) (SEQ ID NO: 65) at 100 μM. In bold, epimerized residues.\n(§2) Inhibition Assay on Liquid Medium\n(§3) An overnight culture of the bacterial strain to be assayed was freshly inoculated to sterile LB liquid medium. After 4 hours of bacterial growth at 37° C., the medium was diluted to 1/10,000 and inoculated into sterile liquid LB or BHI medium. Peptide solution was added ( 1/100) to a final concentration ranging from 0.01 to 100 μM and OD at 600 nm was recorded continuously using a Tecan microplate reader (Infinite® 200 PRO series)."}, "Streptococcus agalactiae": {"test_system": "Streptococcus agalactiae", "assay": "Inhibition assay on liquid medium, Streptococcus agalactiae in BHI medium", "type": "cell-based", "conditions": "peptide at 100 μM; FIG. 12", "procedure": "(§4) FIG. 12—Growth of Streptococcus agalactiae in liquid BHI medium in the presence of YydF33-49 (a), YydF33_49AA (b) (SEQ ID NO: 66), YydF33_49VV (c) (SEQ ID NO: 67), YydF33_49II (d) (SEQ ID NO: 68), Peptide-SA1 (e) (SEQ Ill NO: 62), Peptide-SA2 (f) (SEQ ID NO: 63), Peptide-SE (g) (SEQ ID NO: 64) or Peptide-SP (h) (SEQ ID NO: 65) at 100 μM. In bold, epimerized residues.\nas §2, §3"}, "Enterococcus faecalis": {"test_system": "Enterococcus faecalis", "assay": "Inhibition assay on liquid medium, Enterococcus faecalis in BHI medium", "type": "cell-based", "conditions": "peptide at 100 μM; FIG. 11", "procedure": "as §4, with “11—Growth” for “12—Growth”, “Enterococcus faecalis” for “Streptococcus agalactiae”, “ID” for “Ill”\nas §2, §3"}}, "note": "Read-outs that look alike come from different tables or passages of the source. Square brackets hold non-standard residues; d marks the D form. Ends that are not written are not given here. Peptide text beside a SMILES is read from it. d(aIle) = CC[C@H](C)[C@@H](N)C(=O)O", "data": [{"compound": "Ac-GLLDESQKLAKVNDLWYF{d-V}KSKENRW{d-I}LGSGH [YydF18-49DD]", "values": [{"measurement": "inhibition growth of B. subtilis (plate growth inhibition assay)", "setting": "B. subtilis [1]", "result": "strong inhibition growth"}, {"measurement": "Growth of B. subtilis in liquid LB medium", "setting": "B. subtilis [2]", "result": "bacterial growth inhibition"}, {"measurement": "Growth of B. subtilis in liquid LB medium", "setting": "B. subtilis [2]; listed as epimerized peptide", "result": "strong and persistent inhibition"}]}, {"compound": "Ac-GLLDESQKLAKVNDLWYFVKSKENRWILGSGH [YydF18-49]", "values": [{"measurement": "inhibition growth of B. subtilis (plate growth inhibition assay)", "setting": "B. subtilis [1]", "result": "devoid of activity"}, {"measurement": "cell density after addition of peptide at mid-exponential phase", "setting": "B. subtilis [2]; B. subtilis, liquid LB medium, peptide added after 3 hours of growth, FIG. 9", "result": "a clear slow down followed by a decrease of the cell density"}]}, {"compound": "WYFVKSKQNRWVVGSGH (Peptide-SE)", "values": [{"measurement": "Growth of Streptococcus agalactiae in liquid BHI medium", "setting": "Streptococcus agalactiae", "result": "inhibitors"}, {"measurement": "Growth of Enterococcus faecalis in liquid BHI medium", "setting": "Enterococcus faecalis", "result": "totally inhibited"}]}, {"compound": "CC[C@H](C)[C@@H](NC(=O)[C@H](Cc1c[nH]c2ccccc12)NC(=O)[C@H](CCCNC(=N)N)NC(=O)[C@H](CC(N)=O)NC(=O)[C@H](CCC(=O)O)NC(=O)[C@H](CCCCN)NC(=O)[C@H](CO)NC(=O)[C@H](CCCCN)NC(=O)[C@H](NC(=O)[C@H](Cc1ccccc1)NC(=O)[C@H](Cc1ccc(O)cc1)NC(=O)[C@@H](N)Cc1c[nH]c2ccccc12)C(C)C)C(=O)N[C@@H](CC(C)C)C(=O)NCC(=O)N[C@@H](CO)C(=O)NCC(=O)N[C@@H](Cc1c[nH]cn1)C(=O)O", "note": "[YydF33-49DD] (H-WYF[dV]KSKENRW[d(aIle)]LGSGH-OH; N-terminus and C-terminus assumed)", "values": [{"measurement": "Growth of Streptococcus agalactiae in liquid BHI medium", "setting": "Streptococcus agalactiae", "result": "inhibited"}, {"measurement": "MIC", "setting": "B. subtilis [2]", "result": "< 1", "unit": "µM"}, {"measurement": "Growth of B. subtilis in liquid LB medium", "setting": "B. subtilis [2]", "result": "inhibit bacterial growth"}]}, {"compound": "WYFVRSSKNRWVAGSAH (Peptide-SA1)", "values": [{"measurement": "Growth of Streptococcus agalactiae in liquid BHI medium", "setting": "Streptococcus agalactiae", "result": "inhibitors"}, {"measurement": "Growth of Enterococcus faecalis in liquid BHI medium", "setting": "Enterococcus faecalis", "result": "significantly delayed"}]}, {"compound": "WYFVKSKENRWVLGSGH (also: epimerized D-residues, positions not given here) [YydF33-49VV]", "values": [{"measurement": "Growth of Streptococcus agalactiae in liquid BHI medium", "setting": "Streptococcus agalactiae", "result": "inhibited"}]}, {"compound": "WYFIKSKENRWILGSGH (also: epimerized D-residues, positions not given here) [YydF33-49II]", "values": [{"measurement": "Growth of Streptococcus agalactiae in liquid BHI medium", "setting": "Streptococcus agalactiae", "result": "not"}]}, {"compound": "WYFVRNSKNRWVAGSAH (Peptide-SA2)", "values": [{"measurement": "Growth of Streptococcus agalactiae in liquid BHI medium", "setting": "Streptococcus agalactiae", "result": "inhibitors"}, {"measurement": "Growth of Enterococcus faecalis in liquid BHI medium", "setting": "Enterococcus faecalis", "result": "significantly delayed"}]}, {"compound": "WYFVKSKENRWILGSGH [YydF33-49]", "values": [{"measurement": "Growth of B. subtilis in liquid LB medium", "setting": "B. subtilis [2]", "result": "Only the YYdF33-49DD peptide proved to inhibit bacterial growth"}]}, {"compound": "WYFAKSKENRWALGSGH (YydF33_49AA)", "values": [{"measurement": "Growth of Streptococcus agalactiae in liquid BHI medium", "setting": "Streptococcus agalactiae", "result": "inhibited"}, {"measurement": "Growth of Enterococcus faecalis in liquid BHI medium", "setting": "Enterococcus faecalis", "result": "totally inhibited"}]}]}
